According to PubChem BioAssay (NCI):
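A five-concentration, 48-hour dose response in 96-well plates underlies each endpoint, interpolated linearly between surrounding concentrations. TGI: concentration producing complete growth inhibition.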

Assays:
Assay in all cases: NCI tumour cell line growth inhibition, 48 h
[1] = tested on: A549 NSCLC
[2] = tested on: ACHN renal
[3] = tested on: CCRF-CEM leukemia
[4] = tested on: COLO 205 colon
[5] = tested on: EKVX NSCLC
[6] = tested on: HOP-92 NSCLC
[7] = tested on: IGROV1 ovarian
[8] = tested on: M14 melanoma
[9] = tested on: NCI-H522 lung
[10] = tested on: OVCAR-3 ovarian
[11] = tested on: OVCAR-8 ovarian
[12] = tested on: SF-268 CNS
[13] = tested on: SK-MEL-28 melanoma
[14] = tested on: SK-OV-3 ovarian
[15] = tested on: TK-10 renal
[16] = tested on: U251 CNS
[17] = tested on: HCT-116 colon
[18] = tested on: HL-60(TB) leukemia
[19] = tested on: SK-MEL-5 melanoma
[20] = tested on: LOX IMVI melanoma

SMILES	TGI [1] [µM]	TGI [2] [µM]	TGI [3] [µM]	TGI [4] [µM]	TGI [5] [µM]	TGI [6] [µM]	TGI [7] [µM]	TGI [8] [µM]	TGI [9] [µM]	TGI [10] [µM]	TGI [11] [µM]	TGI [12] [µM]	TGI [13] [µM]	TGI [14] [µM]	TGI [15] [µM]	TGI [16] [µM]	TGI [17] [µM]	TGI [18] [µM]	TGI [19] [µM]	TGI [20] [µM]
CCOP(=O)(OCC)/C(C#N)=C/c1cn(C)cn1	> 100	> 100	> 100	> 100	> 100	> 100	> 100	> 100	> 100	> 100	> 100	> 100	> 100	> 100	> 100	> 100				
CC(C)OP(=O)(OC(C)C)/C(I)=N/Nc1ccc([N+](=O)[O-])cc1	> 100	> 100	> 100	> 100	> 100	> 100	> 100	> 100	> 100	> 100	> 100	> 100	> 100	> 100	> 100	> 100	> 100	> 100	> 100	
C[Si](C)(OCCS(=O)(=O)O)C1(Cc2cccc3ccccc23)S(=O)(=O)OCCOS1(=O)=O	65.2	51.9	45.9	25.3	32.3	50.7	36.3	46.1	30.5	25.9	52.4	79.5	37	35.6	50.9	63.7	37.8	51.8	31.1	34
Cc1ccc(N=N/C(=N\NC(=O)c2ccc(C)cc2)c2ccc(N(CCC#N)CCC#N)cc2C)cc1	> 100	> 100	> 100	> 100	> 100	> 100	60.6	91.8		> 100	> 100	> 100	52.5	> 100	> 100	> 100		> 100	> 100	> 100
Cc1ccc(N2Cc3c(ccc4ccccc34)OP2(=O)Oc2ccc(Cl)c(C)c2)cc1 (centres undefined)	> 100		> 100	> 100	> 100	> 100	> 100		> 100	> 31.6	> 100	> 100	> 100	> 100		> 100	> 100	> 100	> 100	> 100
COc1ccc(-n2cnnc2-c2nsc3ccccc23)cc1	> 100	> 100	> 100	> 100	> 100	> 100	> 100	> 100		> 100	> 100	> 100	> 100		> 100	> 100	> 100	> 100	> 100	> 100
CC1=Nc2nc(Cl)cn2C(=O)C1(Cl)Cl	> 10	> 10	> 10	> 10	> 10		> 10	> 10	> 10	> 10	> 10	> 10	> 10	> 10	> 10	> 10	> 10	> 10	> 10	> 10
CC(NC(=O)C(C)NC(=O)C(N)CCP(C)(=O)O)C(=O)O (centres undefined)	> 100		> 100	> 100	> 100	> 100	> 100		> 100	> 100	> 100	> 100	> 100	> 100		> 100	> 100	> 100	> 100	> 100
